Test results taken from ChEMBL document CHEMBL1155342, “Design, synthesis and analgesic properties of novel conformationally-restricted N-acylhydrazones (NAH)” (2009).

Assays:
Mus musculus [1] = assay: Antinociceptive activity in mouse assessed as inhibition of acetic acid-induced abdominal constrictions at 100 umol/kg, po relative to untreated control; assay type: functional; details: Abdomen
Mus musculus [2] = assay: Antinociceptive activity in po dosed mouse assessed as inhibition of acetic acid-induced abdominal constrictions; assay type: functional; details: Abdomen

| SMILES | inhibition in vivo at 100 µmol/kg (Mus musculus [1]) | ED50 (Mus musculus [2]) |
| --- | --- | --- |
| COc1ccc(C(=O)N/N=C/c2ccccc2)cc1 | 54% | 9.2 µmol/kg |
| COc1ccc(-c2nnc3ccc(-c4ccccc4)nn23)cc1 | 22% | – |
| COc1ccc(C(=O)N(C)/N=C/c2ccccc2)cc1 | 50% | 5.9 µmol/kg |
| COC1=CC2N=CN=C(N/N=C/c3ccccc3)C2C=C1 (centres undefined) | 28% | – |
| COc1ccc2c(=O)n(/N=C/c3ccccc3)cnc2c1 | 48% | 4.2 µmol/kg |
| COc1ccc(C(=O)n2nc(-c3ccccc3)cc2C)cc1 | 50% | 5.1 µmol/kg |
| COc1ccc2c(c1)CC(c1ccccc1)=NNC2=O | 36% | – |
| CC(=O)Nc1ccc(O)cc1 [ACETAMINOPHEN] | 36% | – |
| COc1ccc2c(c1)c(CC(=O)O)c(C)n2C(=O)c1ccc(Cl)cc1 [INDOMETHACIN] | 42% | 56.2 µmol/kg |
